Key:
[1] = molecular target: T1, human OGA (hOGA) (Homo sapiens, UniProt O60502); assay: Screening of inhibitor library against human OGA (single point, triplicate); format: biochemical; settings: 100 μM inhibitor concentration
T1 construct: made in house
T1 sequence (O60502 1-916): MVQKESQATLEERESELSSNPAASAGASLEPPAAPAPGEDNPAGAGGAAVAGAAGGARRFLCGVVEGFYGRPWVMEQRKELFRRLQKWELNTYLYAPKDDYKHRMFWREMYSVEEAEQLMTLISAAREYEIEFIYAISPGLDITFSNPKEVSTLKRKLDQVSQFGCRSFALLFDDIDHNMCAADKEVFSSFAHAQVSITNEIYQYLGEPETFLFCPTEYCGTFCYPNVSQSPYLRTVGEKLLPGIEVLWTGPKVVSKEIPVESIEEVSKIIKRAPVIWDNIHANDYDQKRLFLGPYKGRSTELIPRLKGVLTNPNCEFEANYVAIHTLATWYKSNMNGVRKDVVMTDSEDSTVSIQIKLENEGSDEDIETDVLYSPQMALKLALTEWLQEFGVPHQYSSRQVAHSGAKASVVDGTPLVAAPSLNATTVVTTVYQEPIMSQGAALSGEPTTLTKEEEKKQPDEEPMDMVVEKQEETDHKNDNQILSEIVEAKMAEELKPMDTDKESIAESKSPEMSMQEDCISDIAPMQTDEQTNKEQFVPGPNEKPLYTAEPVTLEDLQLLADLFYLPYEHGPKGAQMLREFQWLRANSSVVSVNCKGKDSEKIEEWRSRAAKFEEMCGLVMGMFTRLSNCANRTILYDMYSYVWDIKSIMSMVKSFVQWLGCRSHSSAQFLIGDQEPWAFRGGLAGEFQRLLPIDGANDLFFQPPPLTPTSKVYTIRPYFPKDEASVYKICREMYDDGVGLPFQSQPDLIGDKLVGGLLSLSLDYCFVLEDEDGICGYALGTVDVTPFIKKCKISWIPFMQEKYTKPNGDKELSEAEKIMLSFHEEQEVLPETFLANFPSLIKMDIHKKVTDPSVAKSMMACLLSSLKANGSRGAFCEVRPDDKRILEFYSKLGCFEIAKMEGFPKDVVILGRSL
Procedure: Expressed and purified human OGA (hOGA) was screened against a library of compounds (compounds stored in 100% DMSO at a concentration of 10 mM) according to a procedure modified from that detailed in Biochem. J. 2009, 420, 221-227 and using the reaction reagents set out in the Table (below). The modification to the published protocol was that an emission wavelength of 450 nm was used rather than […]. Assays were run at singlepoint in triplicate. Inhibitors for further evaluation were selected based on an average observed inhibition greater than 50%.

[2] = molecular target: T2, human OGA (Homo sapiens, UniProt O60502); assay: Determination of IC50 values for inhibition of human OGA; format: biochemical
T2 construct: made in house
T2 sequence (O60502 1-916): T1 sequence (O60502 1-916)
Procedure: Inhibitors identified from the screen described in Example 1 were evaluated for IC50 using a procedure adapted from Biochem. J. 2009, 420, 221-227. IC50 determination was carried out using a range of inhibitor concentrations from 300 μM to 0.003 μM or 100 μM to 0.001 μM. IC50 values were calculated using XLFit 4.

[3] = tested on: human β-hexosaminidase [human placenta] (HexA/B); assay: Determination of IC50 values for inhibition of human β-hexosaminidase; format: biochemical; settings: ratio
Procedure, shortened: (§1)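 Inhibitor titrated from 300 μM to 0.003 μM or 100 μM to 0.001 μM. IC50 values come from curve fits, and selectivity is IC50(β-hexosaminidase)/IC50(human OGA).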

[4] = molecular target: T3, human β-hexosaminidase [human placenta] (HexA/B); assay: as above; format: biochemical; settings: human β-hexosaminidase, human placenta; room temperature, thirty minutes
T3 construct: other: human β-hexosaminidase, human placenta; room temperature, thirty minutes
Procedure, shortened: as §1

[5] = molecular target: T2, human OGA; assay: Determination of Ki values for inhibition of human OGA (4MU-GlcNAc substrate); format: biochemical; settings: 2 nM human OGA, McIlvaine buffer pH 7.4, one hour
Procedure: Enzymatic reactions were carried out in McIlvaine buffer (0.2M Na2PO4, 0.1M citric acid; pH 7.4) using 2 nM human OGA and 4MU-GlcNAc as substrate in the presence of inhibitor. For the Ki of AXX inhibitor concentrations were 0, 20, 40, 80, 160 and 320 nM [for the Ki determination of other compounds either the same concentrations or similar concentrations were used] and 4MU-GlcNAc concentrations were 50, 100, 200, 400, 800, 1600, and 3200 μM. Reactions were left for one hour. […] Modes of inhibition were determined by Lineweaver-Burke analysis and Ki values were determined using GraphPad 5 Prism non-linear regression analysis.

[6] = tested on: O-GlcNAc modified proteins in PC-12 cells or SH-SY5Y cells; assay: Western blot analyses of O-GlcNAc modified proteins in cells; format: cell-based; settings: for EC50: western blot, cells dosed 4 hours at 37° C., cell line not given
Procedure: PC-12 cells or SH-SY5Y cells were dosed with the test compound or vehicle control at 37° C. for 4 hours. Once the incubation was completed the media was removed and cells were lysed. Extracted protein was then used for Western blot analysis using standard molecular biology techniques. The resulting membrane was probed with antibodies specific for tau phosphorylation sites (pSer396, pSer422, pThr231, pSer262) or with antibodies specific for O-GlcNAcylation sites (RL-2 or CTD110.6). The primary antibodies were visualised using appropriate secondary conjugated with the fluorophores Alexa 532 or Alexa 488. Actin was visualised using a FITC conjugated primary antibody. Relative quantification was measured in relation to the actin signal using Image lab software (BRL). Marked increases in O-GlcNAcylated proteins within the cells were observed as compared to controls when cells were dosed with test compound.

Row | Compound | inhibition at 100 µM [1] [%] | IC50 [2] [nM] | Selectivity: IC50(human β-hexosaminidase)/IC50(Human OGA) [3] | IC50 [4] [nM] | Ki [5] [nM] | EC50 [6] [nM] | cellular levels of O-GlcNAc modified proteins relative to vehicle (FIG. 2) ([6]; SH-SY5Y cells, 4 hours) | cellular levels of O-GlcNAc modified proteins relative to vehicle (FIG. 1) ([6]; SH-SY5Y cells, 4 hours, varying concentrations)
1 | CCCCNC(=O)C[C@@H]1[C@H](O)[C@H](O)[C@@H](CO)N1CCCCCCCCCO [Compound A003, N-butyl-2-((2R,3S,4R,5R)-3,4-dihydroxy-5-(hydroxymethyl)-1-(9-hydroxynonyl)pyrrolidin-2-yl)acetamide] | 82.8 | 74600 | >4 | > 300000 | – | – | – | –
2 | CCCNC(=O)C[C@@H]1[C@H](O)[C@H](O)[C@@H](CO)N1CCCCc1ccccc1 [Compound A022, 2-((2R,3S,4R,5R)-3,4-dihydroxy-5-(hydroxymethyl)-1-(4-phenylbutyl)pyrrolidin-2-yl)-N-propylacetamide] | – | 11 | >28571 | > 300000 | 72 | 1230 | – | –
3 | CCNC(=O)C[C@@H]1[C@@H](O)[C@H](O)[C@@H](CO)N1CCCc1ccc(OC)cc1 [Compound A060, 2-((2R,3R,4R,5R)-3,4-dihydroxy-5-(hydroxymethyl)-1-(3-(4-methoxyphenyl)propyl)pyrrolidin-2-yl)-N-ethylacetamide] | – | 11 | >27272 | > 300000 | 167 | 263 | – | –
4 | CCCCCCCCCN1[C@H](CC(=O)NCCCC)[C@H](O)[C@H](O)[C@H]1CO [Compound A001, N-butyl-2-((2R,3S,4R,5R)-3,4-dihydroxy-5-(hydroxymethyl)-1-nonylpyrrolidin-2-yl)acetamide] | 89.6 | 58000 | >5 | > 300000 | – | – | – | –
5 | CCCCCCCCCN1[C@H](CC(=O)NCCC)[C@H](O)[C@H](O)[C@H]1CO [Compound A008, 2-((2R,3S,4R,5R)-3,4-dihydroxy-5-(hydroxymethyl)-1-nonylpyrrolidin-2-yl)-N-propylacetamide] | – | 12 | >25000 | > 300000 | 55 | – | – | –
6 | CNC(=O)C[C@@H]1[C@H](O)[C@H](O)[C@@H](CO)N1CCCCCNS(=O)(=O)c1ccc(-c2ccccc2)cc1 [Compound A066, 2-((2R,3S,4R,5R)-1-(5-([1,1′-biphenyl]-4-ylsulfonamido)pentyl)-3,4-dihydroxy-5-(hydroxymethyl)pyrrolidin-2-yl)-N-methylacetamide] | – | < 3 | >3633 | 10900 | 3 | 20 | – | –
7 | CNC(=O)C[C@@H]1[C@H](O)[C@H](O)[C@@H](CO)N1CCCc1ccccc1 [Compound A016, 2-((2R,3S,4R,5R)-3,4-dihydroxy-5-(hydroxymethyl)-1-(3-phenylpropyl)pyrrolidin-2-yl)-N-methylacetamide] | – | < 3 | >18000 | 54000 | 11 | 255 | increase | –
8 | CCCCCCN1[C@H](CC(=O)NC)[C@H](O)[C@H](O)[C@H]1CO [Compound A012, 2-((2R,3S,4R,5R)-1-hexyl-3,4-dihydroxy-5-(hydroxymethyl)pyrrolidin-2-yl)-N-methylacetamide] | – | 49 | >6085 | > 300000 | 70 | 656 | increase | increase
9 | CNC(=O)C[C@@H]1[C@H](O)[C@H](O)[C@@H](CO)N1CCc1ccccc1 [Compound A010, 2-((2R,3S,4R,5R)-3,4-dihydroxy-5-(hydroxymethyl)-1-phenethylpyrrolidin-2-yl)-N-methylacetamide] | – | 9 | 3666 | 33000 | – | 1540 | – | –
10 | CCNC(=O)C[C@@H]1[C@@H](O)[C@H](O)[C@@H](CO)N1CCC(c1ccccc1)c1ccccc1 [Compound A068, 2-((2R,3R,4R,5R)-1-(3,3-diphenylpropyl)-3,4-dihydroxy-5-(hydroxymethyl)pyrrolidin-2-yl)-N-ethylacetamide] | – | 3.7 | >65405 | 242000 | 64 | – | – | –
11 | CNC(=O)C[C@H]1N[C@H](CO)[C@@H](O)[C@H]1O [Compound A007, 2-((2R,3S,4R,5R)-3,4-dihydroxy-5-(hydroxymethyl)pyrrolidin-2-yl)-N-methylacetamide] | – | 102 | >3000 | > 300000 | – | 4000 | – | –
12 | CCN1[C@H](CC(=O)NC)[C@H](O)[C@H](O)[C@H]1CO [Compound A019, 2-((2R,3S,4R,5R)-1-ethyl-3,4-dihydroxy-5-(hydroxymethyl)pyrrolidin-2-yl)-N-methylacetamide] | – | 69 | >4366 | > 300000 | – | 1900 | – | –
13 | CCCCNC(=O)C[C@H]1N[C@H](CO)[C@@H](O)[C@H]1O [Compound A002, N-butyl-2-((2R,3S,4R,5R)-3,4-dihydroxy-5-(hydroxymethyl)pyrrolidin-2-yl)acetamide] | 52.8 | 75000 | >4 | > 300000 | – | – | – | –
14 | CNC(=O)C[C@@H]1[C@H](O)[C@H](O)[C@@H](CO)N1CCCCC(C)C [Compound A021, 2-((2R,3S,4R,5R)-3,4-dihydroxy-5-(hydroxymethyl)-1-(5-methylhexyl)pyrrolidin-2-yl)-N-methylacetamide] | – | 8 | >37037 | > 300000 | 41 | 604 | increase | –

From patent US20140073801A1, “PYRROLIDINE DERIVATIVES AS SELECTIVE GLYCOSIDASE INHIBITORS AND USES THEREOF” (Summit Corporation Plc, priority 2011, published 2014)
